These results are taken from patent EP3807270B1, “NOVEL HETEROARYL HETEROCYCLYL COMPOUNDS FOR THE TREATMENT OF AUTOIMMUNE DISEASE” (F. Hoffmann-La Roche AG, priority 2018, dated 2019).

The target in data set [1] is T1, hTLR7 (Homo sapiens, UniProt Q9NYK1).
T1 sequence (Q9NYK1 27-1049): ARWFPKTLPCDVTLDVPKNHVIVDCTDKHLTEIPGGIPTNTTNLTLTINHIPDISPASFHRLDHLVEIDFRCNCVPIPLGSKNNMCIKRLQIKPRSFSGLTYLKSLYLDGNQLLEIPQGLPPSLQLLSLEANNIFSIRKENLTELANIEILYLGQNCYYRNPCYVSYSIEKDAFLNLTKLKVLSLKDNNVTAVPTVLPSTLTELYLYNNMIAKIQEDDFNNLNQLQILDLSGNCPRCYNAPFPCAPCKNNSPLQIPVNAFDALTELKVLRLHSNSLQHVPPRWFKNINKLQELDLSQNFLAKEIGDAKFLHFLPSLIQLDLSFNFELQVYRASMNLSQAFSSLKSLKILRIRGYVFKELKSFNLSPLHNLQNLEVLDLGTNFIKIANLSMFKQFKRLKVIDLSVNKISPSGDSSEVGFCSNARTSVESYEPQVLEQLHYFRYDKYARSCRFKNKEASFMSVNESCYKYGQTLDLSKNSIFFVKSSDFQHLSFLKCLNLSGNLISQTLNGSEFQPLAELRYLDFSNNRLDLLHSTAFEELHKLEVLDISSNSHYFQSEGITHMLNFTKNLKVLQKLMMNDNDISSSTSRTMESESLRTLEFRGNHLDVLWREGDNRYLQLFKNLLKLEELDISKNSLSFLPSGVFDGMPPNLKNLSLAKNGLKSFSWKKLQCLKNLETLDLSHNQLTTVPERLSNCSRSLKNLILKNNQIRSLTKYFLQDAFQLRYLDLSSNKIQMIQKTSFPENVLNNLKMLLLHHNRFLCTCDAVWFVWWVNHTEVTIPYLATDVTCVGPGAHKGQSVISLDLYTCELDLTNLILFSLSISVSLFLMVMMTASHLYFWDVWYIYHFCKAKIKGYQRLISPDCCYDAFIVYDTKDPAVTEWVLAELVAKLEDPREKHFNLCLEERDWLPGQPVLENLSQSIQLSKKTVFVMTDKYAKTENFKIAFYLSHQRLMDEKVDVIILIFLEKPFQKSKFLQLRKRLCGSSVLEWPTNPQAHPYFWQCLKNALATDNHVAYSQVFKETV
Put plainly: HEK293-Blue-hTLR-7 cells assay (SEAP reporter, R848 stimulation). Type of data set: cell-based. More on the design: host or cells: HEK293 (HEK-Blue). As to conditions: HEK293-Blue-hTLR7 cells, R848, 20 hrs; read-out: HEK/hTLR7 IC50. The method, boiled down: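 HEK293-Blue cells stably expressing human TLR7 with an NF-κB/AP-1-driven SEAP reporter were treated with serially diluted compound (1% DMSO final) plus R848 for 20 h at 37 °C. Supernatant SEAP activity was measured with QUANTI-Blue substrate after 2 h at 37 °C, with absorbance read at 620-655 nm.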

Data set [2] can be described thus: Human microsome stability assay. Particulars: 1 µM test compound, 0.5 mg/mL liver microsomal protein, 37 °C. In kind it is in vitro ADME. The protocol: The human microsomal stability assay is used for early assessment of metabolic stability of a test compound in human liver microsomes.
Human liver microsomes (Cat.NO.: 452117, Corning, USA;Cat.NO.:H2610, Xenotech, USA) were preincubated with test compound for 10 minutes at 37 °C in 100 mM potassium phosphate buffer, pH 7.4. The reactions were initiated by adding NADPH regenerating system. The final incubation mixtures contained 1 µM test compound, 0.5 mg/mL liver microsomal protein, 1 mM MgClz, 1 mM NADP, 1 unit/mL isocitric dehydrogenase and 6 mM isocitric acid in 100 mM potassium phosphate buffer, pH 7.4. After incubation times of 0, 3, 6, 9, 15 and 30 minutes at 37 °C, 300 µL of cold acetonitrile (including internal standard) was added to 100 µL incubation mixture to terminate the reaction. Following precipitation and centrifugation, the amount of compound remaining in the samples were determined by LC-MS/MS. Controls of no NADPH regenerating system at zero and 30 minutes were also prepared and analyzed. […] Table 6. Human liver microsome stability of the compounds of present invention
(Liver microsomes are vesicles of endoplasmic reticulum, rich in cytochrome P450 enzymes.)

For `C[C@@H]1CN(c2ccc(C#N)c3ncccc23)C[C@H](CN2CCN(c3ccc4c(n3)CN[C@H]4C)CC2)O1` (single isomer, unassigned) [Example 63], the IC50 in data set [1] came to 11 nM. The “Clearance of Human microsome” value in data set [2] is reported as 6.15 mL/min/kg.

`C[C@@H]1CN(c2ccc(C#N)c3ncccc23)C[C@H](CN2CCN(c3cnc4c(c3)CN[C@H]4C)CC2)O1` (single isomer, unassigned) [Example 67]: the IC50 in data set [1] was found to be 13 nM. In data set [2], the “Clearance of Human microsome” value stood at 6.15 mL/min/kg.

Consider `C[C@@H]1Cc2cc(N3CCN(C[C@H]4CN(c5ccc(C#N)c6ncccc56)C[C@@H](C)O4)CC3)ncc2CN1` (single isomer, unassigned) [Example 70], for which the IC50 in data set [1] worked out at 26 nM. In addition, in data set [2], the “Clearance of Human microsome” value was 7.55 mL/min/kg.

Regarding `C[C@@H]1CN(c2ccc(C#N)c3ncccc23)C[C@H](CN2CCN(c3cc4c(cn3)CCN[C@@H]4C)CC2)O1` (single isomer, unassigned) [Example 74], the IC50 in data set [1] is 7 nM. In addition, the “Clearance of Human microsome” value in data set [2] came out at 7.39 mL/min/kg.

On to `C[C@@H]1CN(c2ccc(C#N)c3ncccc23)C[C@H](CN2CCN(c3cc4c(cn3)C[C@H](C)NC4)CC2)O1` (single isomer, unassigned) [Example 76], for which the IC50 in data set [1] came to 14 nM. The “Clearance of Human microsome” value in data set [2] was found to be 6.15 mL/min/kg.

`C[C@@H]1Cc2cnc(N3CCN(C[C@H]4CN(c5ccc(C#N)c6ncccc56)C[C@@H](C)O4)CC3)cc2CN1` (single isomer, unassigned) [Example 77]: in data set [1], the IC50 was 11 nM. The “Clearance of Human microsome” value in data set [2] came to 6.34 mL/min/kg.

Turning to `C[C@@H]1CN(c2ccc(C#N)c3nccnc23)C[C@H](CN2CCN(c3ccc4c(n3)CN[C@H]4C)CC2)O1` (single isomer, unassigned) [Example 78], the IC50 in data set [1] is 5 nM. In data set [2], the “Clearance of Human microsome” value is on record as 7.50 mL/min/kg.

As to `C[C@@H]1CN(c2ccc(C#N)c3nccnc23)C[C@H](CN2CCN(c3cc4c(cn3)C[C@H](C)NC4)CC2)O1` (single isomer, unassigned) [Example 81], the IC50 in data set [1] is 5 nM. In addition, the “Clearance of Human microsome” value in data set [2] is recorded as 6.15 mL/min/kg.

Consider `C[C@@H]1Cc2cnc(N3CCN(C[C@H]4CN(c5ccc(C#N)c6nccnc56)C[C@@H](C)O4)CC3)cc2CN1` (single isomer, unassigned) [Example 82], for which the IC50 in data set [1] was found to be 11 nM. Besides, in data set [2], the “Clearance of Human microsome” value was 8.84 mL/min/kg.

Turning to `C[C@@H]1Cc2cc(N3CCN(C[C@H]4CN(c5ccc(C#N)c6nccnc56)C[C@@H](C)O4)CC3)ncc2CN1` (single isomer, unassigned) [Example 83], the IC50 in data set [1] was 6 nM. In data set [2], the “Clearance of Human microsome” value is listed as 8.31 mL/min/kg.

For the molecule `C[C@@H]1CN(c2ccc(C#N)c3nccnc23)C[C@H](CN2CCN(c3cc4c(cn3)[C@H](C)NCC4)CC2)O1` (single isomer, unassigned) [Example 85], in data set [1], the IC50 was found to be 5 nM. For the same molecule, the “Clearance of Human microsome” value in data set [2] is given as 7.83 mL/min/kg.

On to `C[C@@H]1CN(c2ccc(C#N)c3ncccc23)C[C@H](CN2CCN(c3ccc4c(c3)CNC4)CC2)O1` [Example 7, 5-[(2S,6R)-2-[(4-isoindolin-5-ylpiperazin-1-yl)methyl]-6-methyl-morpholin-4-yl] quinoline-8-carbonitrile], for which the IC50 in data set [1] came to 39 nM. Further, the “Clearance of Human microsome” value in data set [2] was 8.75 mL/min/kg.

As for `C[C@@H]1CN(c2ccc(C#N)c3ncccc23)C[C@H](CN2CCN(c3ccc4c(c3)CNC4)C(CO)C2)O1` (stereo partly drawn) [Example 13, 5-[(2S,6R)-2-[[3-(hydroxymethyl)-4-isoindolin-5-yl-piperazin-1-yl]methyl]-6-methyl-morpholin-4-yl]quinoline-8-carbonitrile], in data set [1], the IC50 was 57 nM. In addition, in data set [2], the “Clearance of Human microsome” value came to 8.00 mL/min/kg.

Regarding `C[C@@H]1CN(c2ccc(C#N)c3ncccc23)C[C@H](CN2CCN(c3cc4c(cn3)CCNC4)CC2)O1` [Example 20, 5-[(2R,6S)-2-methyl-6-[[4-(5,6,7,8-tetrahydro-2,6-naphthyridin-3-yl)piperazin-1-yl]methyl]morpholin-4-yl]quinoline-8-carbonitrile], in data set [1], the IC50 is 8 nM. Further, the “Clearance of Human microsome” value in data set [2] is recorded as 6.43 mL/min/kg.

As for `C[C@@H]1CN(c2ccc(C#N)c3ncccc23)C[C@H](CN2CCN(c3ccc4c(c3)C(O)CNC4)CC2)O1` (stereo partly drawn) [Example 22, 5-[(2S,6R)-2-[[4-(4-hydroxy-1,2,3,4-tetrahydroisoquinolin-6-yl)piperazin-1-yl]methyl]-6-methyl-morpholin-4-yl]quinoline-8-carbonitrile], the IC50 in data set [1] is 39 nM. Besides, the “Clearance of Human microsome” value in data set [2] is recorded as 6.82 mL/min/kg.

With `C[C@@H]1CN(c2ccc(C#N)c3ncccc23)C[C@H](CN2CCN(c3cnc4c(c3)CCNC4)CC2)O1` [Example 23, 5-[(2R,6S)-2-methyl-6-[[4-(5,6,7,8-tetrahydro-1,7-naphthyridin-3-yl)piperazin-1-yl]methyl]morpholin-4-yl]quinoline-8-carbonitrile], the IC50 in data set [1] worked out at 59 nM. Further, the “Clearance of Human microsome” value in data set [2] was found to be 6.15 mL/min/kg.

Turning to `C[C@@H]1CN(c2ccc(C#N)c3ncccc23)C[C@H](CN2CCN(c3ccc4c(c3)CCNC4CO)CC2)O1` (stereo partly drawn) [Example 24, 5-[(2S,6R)-2-[[4-[1-(hydroxymethyl)-1,2,3,4-tetrahydroisoquinolin-6-yl]piperazin-1-yl]methyl]-6-methyl-morpholin-4-yl]quinoline-8-carbonitrile], in data set [1], the IC50 was determined as 32 nM. The “Clearance of Human microsome” value in data set [2] turned out to be 6.15 mL/min/kg.

As for `CC1NCc2cc(N3CCN(C[C@H]4CN(c5ccc(C#N)c6ncccc56)C[C@@H](C)O4)CC3)ccc21` (stereo partly drawn) [Example 28, 5-[(2R,6S)-2-methyl-6-[[4-(1-methylisoindolin-5-yl)piperazin-1-yl]methyl]morpholin-4-yl]quinoline-8-carbonitrile], in data set [1], the IC50 is 11 nM. Moreover, the “Clearance of Human microsome” value in data set [2] amounted to 6.15 mL/min/kg.

Take `C[C@@H]1CN(c2ccc(C#N)c3ncccc23)C[C@H](CN2CCN(c3ncnc4c3CNCC4)CC2)O1` [Example 61, 5-[(2R,6S)-2-methyl-6-[[4-(5,6,7,8-tetrahydropyrido[4,3-d]pyrimidin-4-yl)piperazin-1-yl]methyl]morpholin-4-yl]quinoline-8-carbonitrile]: the IC50 in data set [1] was determined as 5 nM.

As to `C[C@@H]1CN(c2ccc(C#N)c3ncccc23)C[C@H](CN2CCN(c3nccc4c3CCNC4)CC2)O1` [Example 62, 5-[(2R,6S)-2-methyl-6-[[4-(5,6,7,8-tetrahydro-2,6-naphthyridin-1-yl)piperazin-1-yl]methyl]morpholin-4-yl]quinoline-8-carbonitrile], the IC50 in data set [1] was less than 3 nM.

With `C[C@@H]1CN(c2ccc(C#N)c3ncccc23)C[C@H](CN2CCN(c3ccc4c(n3)CNCC4)CC2)O1` [Example 69, 5-[(2R,6S)-2-methyl-6-[[4-(5,6,7,8-tetrahydro-1,7-naphthyridin-2-yl)piperazin-1-yl]methyl]morpholin-4-yl]quinoline-8-carbonitrile], the IC50 in data set [1] came out at 12 nM. The “Clearance of Human microsome” value in data set [2] is recorded as 6.23 mL/min/kg.

With `COc1ccc(N2CCN(C[C@H]3CN(c4ccc(C#N)c5ncccc45)C[C@@H](C)O3)CC2)cc1` [Example R1, 5-[(2S,6R)-2-[[4-(4-methoxyphenyl)piperazin-1-yl]methyl]-6-methyl-morpholin-4-yl]quinoline-8-carbonitrile, reference compound], the IC50 in data set [1] was 95 nM.
